Columns and labels:
[1] = test system: male Sprague/Dawley (SD) rats; test: Hemodynamic assessment (MAP) in rats treated with fluprostenol and/or IFN-γ; format: in vivo, rat; conditions: conscious rats, 14 days of treatment (FIG. 5)
Experimental: Hemodynamic assessment Thirteen days after treatment, rats were anesthetized with intraperitoreal injection of ketamine 80 mg/kg (Aveco Co., Inc., Fort Dodge, Iowa) and xylazine 10 mg/kg (Rugby Laboratories, Inc., Rockville Center, N.Y.). A catheter (PE-10 fused with PE 50) filled with heparin-saline solution (50 U/ml) was implanted into the abdominal aorta, via the right femoral artery, for measurement of mean arterial pressure (MAP) and heart rate (HR). The catheter was exteriorized and fixed at the back of the neck.
One day after catheterization, the arterial catheter was connected to a Model CP 10 pressure transducer (Century Technology Company, Inglewood, Calif., USA) that was coupled to a Grass Model 7 polygraph (Grass Instruments, Quincy, Mass., USA). MAP and HR were measured simultaneously in conscious, unrestrained rats.

[2] = test system: left ventricle of rats with pressure overload; test: Cardiac gene expression (real-time RT-PCR) in rats with pressure overload; format: in vivo, rat
Experimental: Experimental protocol in rats with pressure overload The rats with aortic banding randomly received subcutaneous injection of IFN-γ at 0.08 mg/k twice a day for one day before surgery and for 14 days after surgery. Sham animals were not treated. Thirteen days after treatment, a catheter was implanted into the right carotid artery under anesthesia as indicated above. One day after implantation, arterial pressure and HR were measured in conscious rats. The heart and other organs including the liver, kidney, and spleen were removed, weighed, and fixed in 10% buffered formalin for pathological studies. The left ventricle was quickly dissected and frozen with liquid nitrogen in some animals and stored at −80° C. for assessment of gene expression.
RNA preparation Total RNA was isolated using RNeasy Maxi Columns (Qïägen) according to the manufacturer's instructions.
RT-PCR Real-time RT-PCR (TaqMan) technology was used to compare the gene expression between the various treatment groups. An oligonucleotide probe containing a fluorescent reporter dye, […], at the 3′-end was designed to hybridize to the amplicon defined by two PCR primers. A 3′-blocking phosphate prevents extension of the probe. The reporter dye is released from the probe by the 5′ exonuclease activity of Taq polymerase during the extension phase of PCR reaction. […] The threshold cycle number (Ct), defined as the point where the reporter fluorescence reaches a value greater than 10 times the standard deviation of the baseline, is […] to the amount of amplicon produced from the sample. Since the fluorescence is detected during the exponential phase of the amplification, none of the reaction components are limiting. In each experiment, a control is analyzed that lacks the RNA template to monitor for contamination, and another control is included where the RT step is omitted to eliminate amplification of possible contaminating DNA as the source of the signal. Reactions are optimized to give the greatest fluorescence signal and smallest Ct by titration of magnesium and primer concentrations, and the product is run on an agarose gel to verify the presence of a single band at the predicted molecular weight. In addition, the sequence of the amplicon is screened against Genbank to eliminate the possibility of overlap with closely related genes.
For each sample the mRNA for each target gene is determined using a standard curve as described below and then normalized to the amount of glyceraldehyde-3-phosphate-dehydrogenase (GAPDH) in the sample (see below for specifics of this calculation). The relative abundance of each target gene to GAPDH can then be compared among treatment groups.
RT-PCR was performed on 1 ng of total RNA per reaction using the TaqMan Model 7700 Sequence Detector (ABI-Perkin Elmer) (Gibson et al., Genome Res. 6, 995–1001 [1996]). Amplification reaction conditions (for 50 μl) were 1×TaqMan Buffer A, 200 μM dATP, dCTP, dGTP, and 400 μM dUTP, 10% glycerol, 6.5 mM MgCl2, 50 U MuLV reverse transcriptase, 20 U RNase Inhibitor, 1.25 U AmpliTaq Gold, 100 nM forward and reverse primers, and 100 nM fluorogenic probe. RT-PCR reagents and glycerol were purchased from Perkin Elmer and Sigma, respectively. Reactions were performed in MicoAmp Optical Tubes and Caps (ABI-Perkin Elmer). TaqMan primers and probes were designed according to guidelines determined by Perkin Elmer and synthesized at Genentech, Inc., except for those for rodent GAPDH which were a generous gift from Perkin Elmer. Reverse transcription was performed at 48° C. for 30 minutes followed by heat activation of AmpliTaq Gold at 95° C. for 10 minutes. Thermal cycling was at 95° C. for 30 seconds and 60° for 1.5 minutes for 40 cycles.
Quantitation of the TaqMan results was performed as described by Heid et al., Genome Res. 6:986–994 (1996), with modifications. Briefly, standard curves (1:5 serial dilution) for each target gene of interest were run in duplicate. […]

[3] = pressure overload, ratio to glyceraldehyde-3-phosphate dehydrogenase, mean ± SEM, n = 6

## IFN-γ: recombinant mouse IFN-γ (Genentech, Inc., South San Francisco, Calif., or Genzyme, Cambridge, Mass.)
[1]
  Effect of IFN-γ on MAP of animals treated with fluprostenol: did not affect the MAP
  Mean arterial pressure (MAP) compared to vehicle: had no effect on MAP
[2]; banded rats, Table 3
  Effects of aortic constriction on α-smooth muscle actin and collagen I gene expression: inhibited
[2]; [3]
  ANF, atrial natriuretic factor expression: 3.61 ± 1.32
  COLI, collagen I expression: 0.77 ± 0.10
  COLIII, collagen III expression: 0.72 ± 0.09
  FIB, fibronectin expression: 0.97 ± 012
  SKA, α-skeletal actin expression: 2.47 ± 0.51
  SMA, α-smooth muscle actin expression: 0.77 ± 0.06
  βMHC, β-myosin heavy chain expression: 1.71 ± 0.14

Source: patent publication US6989364B1, “Methods for treating cardiac hypertrophy by administering IFN-γ” (Genentech, Inc., priority 1998, dated 2006)
